{"source": "paper PMC9369154", "about": "“Molecular Basis for Luteolin as a Natural TatD DNase Inhibitor in Trueperella pyogenes” (International Journal of Molecular Sciences, 2022)", "key": {"TatD825": {"biological_target": "T1, TatD825 (Trueperella pyogenes, UniProt A0ABV3NC31)", "T1 construct": "gene V3M73_06995; His-TatD 825 recombinant protein expressed in E. coli BL21 (DE3)", "test": "SPR (Biacore T200, NTA chip, […] binding model); DNase gel assay with Mg2+ also shows inhibition"}, "TatD960": {"biological_target": "T2, TatD960 (Trueperella pyogenes, UniProt A0ABV3N8R6)", "T2 construct": "gene V3M73_00540; His-TatD 960 recombinant protein expressed in E. coli BL21 (DE3)", "test": "SPR (Biacore T200, NTA chip, […] binding model); DNase gel assay with Mg2+ also shows inhibition"}}}
{"molecule": "O=c1cc(-c2ccc(O)c(O)c2)oc2cc(O)cc(O)c12", "note": "[luteolin, 3′,4′,5,7-tetrahydroxyflavone]", "values": [{"measurement": "Kd", "setting": "TatD825", "value": 5.65, "unit": "µM"}, {"measurement": "Kd", "setting": "TatD960", "value": 6.27, "unit": "µM"}]}
